Key:
[1] = biological target: T1, CtHtrA (Chlamydia trachomatis serovar D, UniProt P18584); experiment: MS and MS-MS analysis of peptide cleavage products; format: biochemical; details: data not shown
T1 construct: His-tag; made in house; host or cells: E. coli BL21 (DE3), plasmid pETHtrA
T1 sequence (P18584 17-497): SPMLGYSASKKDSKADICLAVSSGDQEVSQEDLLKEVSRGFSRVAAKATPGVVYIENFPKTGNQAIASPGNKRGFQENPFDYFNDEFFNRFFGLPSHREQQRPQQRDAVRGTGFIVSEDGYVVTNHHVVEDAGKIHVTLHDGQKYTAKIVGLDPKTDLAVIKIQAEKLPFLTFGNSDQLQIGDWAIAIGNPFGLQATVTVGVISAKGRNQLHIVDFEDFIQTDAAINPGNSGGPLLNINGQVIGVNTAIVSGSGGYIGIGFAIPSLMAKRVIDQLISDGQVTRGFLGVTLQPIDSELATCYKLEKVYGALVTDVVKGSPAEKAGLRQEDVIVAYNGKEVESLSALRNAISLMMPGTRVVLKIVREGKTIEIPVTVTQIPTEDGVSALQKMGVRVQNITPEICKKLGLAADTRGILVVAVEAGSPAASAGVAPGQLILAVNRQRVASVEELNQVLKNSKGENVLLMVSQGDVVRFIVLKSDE
Method: Bcas1 and Act1 peptides (150 µM concentration) digested with CtHtrA (71 µg) were analysed by online LC/MS/MS using a QStar Pulsar I (Applied Biosystems) in […] mode. Data acquired were converted into mzXML format using proteowizard (v2) and searched using ([…], the global proteome machine, ftp://ftp.thegpm.org/fasta/cRAP), against CtHtrA and Act1 and Bcas1 peptide sequences with an included decoy database of the reverse sequence for each protein. The search also included potential mass modifications accounting for the additional […] moieties on the N and C peptide termini, respectively. Matches with an expected ratio of <1 were considered identified. All raw data and mass spectra can be made available on request.

[2] = test system: CtHtrA I365D; experiment: Oligomerisation assay, mutated protein; format: biochemical, Chlamydia trachomatis; details: I365D mutant, 10 mins incubation
Method: (§1) E. coli DegP proteolysis activation involves the transition from resting hexamers via trimers to 12- and 24-mers following the peptide activator binding to the PDZ1 binding cleft. CtHtrA oligomer formation induced by Act1 addition was examined after incubation for 10 mins at 37°C. The wild type and mutant proteins were incubated with either the ß-casein based activator peptide (Act1), or with whole insulin (intact), or in the absence of any activator as a control. CtHtrA incubated in the absence of any added activators formed 24-mers with some hexamers detected after 10 mins (Fig. 5). […] The R299W mutant was present as hexamer and 24-mer in the control with no activator. […] The L302N mutant was not detected in any higher oligomeric form under any conditions. L302N was detected as faint hexamer and trimer but mostly monomer under all tested conditions (not visible on these gels). […] I365D was detected as hexamers, trimers, 12-mers, and some 24-mers when incubated in the absence of activators.
(§2) The oligomerisation of HtrA into 12- and 24-mer complexes has been independently detected for E. coli HtrA (DegP). The oligomerisation of HtrA (DegP) was triggered by peptides from digested ß-casein [18]. Assays to detect whether CtHtrA and site directed mutant protein oligomerisation was triggered by substrates were conducted essentially as previously described (Merdanovic et al., 2010). Briefly, 2 mg/ml protein solutions in 100 mM sodium phosphate buffer pH 7.0 were pre-incubated to the required temperature. The ligands (activator peptide, or insulin) were added and at 10 min, and the proteins were fixed using 0.5% glutaraldehyde. Samples were fixed at room temperature for 2 min prior to addition of 1 M Tris pH 7.5 to remove any excess glutaraldehyde. Samples were incubated for another 10 min at room temperature prior to addition of SDS PAGE reducing loading buffer. The protein samples were examined on 3–8% TrisAcetate gradient polyacrylamide gels (Novex, Invitrogen) by silver staining. The proteins used in this study were not initially denatured by treatment with urea as, the refolding, formation of oligomers, and protease activity was never successfully detected with denatured CtHtrA. All assays were conducted in duplicate on three separate occasions with at least two gels of each experiment completed for each assay condition.

[3] = test system: CtHtrA R299W; experiment: Oligomerisation assay, mutated protein; format: biochemical, Chlamydia trachomatis; details: R299W mutant, 10 mins incubation
Method: as §1, §2

[4] = test system: CtHtrA R373A; experiment: Oligomerisation assay, mutated protein; format: biochemical, Chlamydia trachomatis; details: R373A mutant, 10 mins incubation
Method: as §1, §2

[5] = biological target: T1, CtHtrA; experiment: Oligomerisation assay (glutaraldehyde crosslinking, 3-8% TrisAcetate gel, silver stain); format: biochemical; details: wild type CtHtrA 2 mg/ml, 100 mM sodium phosphate pH 7.0, 10 mins at 37°C, 0.5% glutaraldehyde fixation
Method: as §1, §2

H-VLGPVRGPFPIIV-OH [Act1]
cleavage of activator peptide by CtHtrA, MALDI MS MS [1]: No evidence of Act1 cleavage
oligomer formation induced by activator [2]: no 12-mers, but only hexamers and 24-mers were detected
oligomer formation induced by activator [3]: Low levels of 24-mer were formed
oligomer formation induced by activator [4]: resulted in 24-mer formation
CtHtrA oligomer formation induced by activator [5]: induced the protein to form 24-mers

— article PMC3169616, “Unique Residues Involved in Activation of the Multitasking Protease/Chaperone HtrA from Chlamydia trachomatis” (PLoS ONE, 2011)
